Reference: patent US20210284621A1 (priority 2018, published 2021)

What was measured:
LPS-induced PBMCs = assay: Inflammatory cytokine release from LPS-induced PBMCs (Luminex); type: cell-based, human; conditions: fold change from LPS-treated PBMCs, compounds 10 μM (DEX 1 μg/ml) 2 h, then LPS 0.1 μg/ml 24 h, negative = reduced; for IL-12 (p70) / L-31: OOR = out of standard curve range
Procedure: Compounds of the invention were assayed for their effect on inflammatory cytokine release from lipopolysaccharides (LPS)-induced PBMCs, isolated from a human blood sample, the results of which are provided in Table 7 as fold change. Exemplary methods for quantifying secretion of inflammatory cytokines in PBMCs are known in the art, for example, as described in Hailer et al., Infection and Immunity. 68(2):752-759 (2000); and Merlini et al., Frontiers in Immunology. 7:614 (2016); each of which is incorporated herein by reference with respect to methods for evaluating cytokine release in PBMCs.
In brief, human blood samples from healthy volunteers were collected and PBMCs were isolated. PBMCs were cultured and each compound was assayed in triplicate at a final concentration of 10 μM for 2 hours. 1 μg/ml dexamethasone (DEX) served as a positive control. LPS was added at a final concentration of 0.1 μg/ml and further incubated for 24 hours. At the end of the incubation, the supernatants were collected and the levels of a panel of secreted cytokines were measured by a Human Magnetic Luminex® assay (R&D). The results in Table 7 are presented as a fold change from LPS-treated PBMCs. Reduced levels are expressed by negative values. OOR denotes values that are out of the standard curve range for the specific cytokine and thus, could not be accurately measured. Cytotoxicity was also determined. Compounds with cytotoxicity ≥50% was considered cytotoxic. Baseline cytotoxicity of untreated PBMCs was 17% and all compounds presented in Table 7 induced cytotoxicity below 25%.

CB1 receptor [1] = biological target: T1, CB1 receptor (Homo sapiens, UniProt P21554); assay: cAMP Assay #2: Hit Hunter cAMP assay, Gi-coupled agonist activity, CB1; type: cell-based; set-up: host or cells: PathHunter cell lines
T1 sequence (P21554 whole entry): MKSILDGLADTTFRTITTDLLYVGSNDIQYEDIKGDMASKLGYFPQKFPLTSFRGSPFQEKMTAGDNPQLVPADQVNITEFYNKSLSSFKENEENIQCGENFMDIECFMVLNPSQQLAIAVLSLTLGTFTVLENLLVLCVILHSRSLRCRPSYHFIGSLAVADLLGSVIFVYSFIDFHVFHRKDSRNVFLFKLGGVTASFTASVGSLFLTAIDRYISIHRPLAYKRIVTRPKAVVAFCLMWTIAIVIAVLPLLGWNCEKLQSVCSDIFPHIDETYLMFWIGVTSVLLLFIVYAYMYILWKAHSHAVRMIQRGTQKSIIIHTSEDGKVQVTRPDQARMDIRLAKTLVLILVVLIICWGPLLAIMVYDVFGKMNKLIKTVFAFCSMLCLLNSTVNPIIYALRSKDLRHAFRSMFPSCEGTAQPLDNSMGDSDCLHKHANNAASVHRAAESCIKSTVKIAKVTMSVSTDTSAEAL
Procedure: (§1) Compounds of the invention were assayed in the Hit Hunter® cAMP assay to determine Gi-coupled agonist activity on the CB1 and CB2 receptors, the results of which are provided in Table 5.
(§2) The Hit Hunter® cAMP assay monitors the activation of a GPCR via Gi and […] secondary messenger signaling in a homogenous, non-imaging assay format using a technology developed by DiscoverX called Enzyme Fragment Complementation (EFC) with β-galactosidase (β-Gal) as the functional reporter. […] ED is fused to cAMP and in the assay competes with cAMP generated by cells for binding to a cAMP-specific antibody. Active β-Gal is formed by complementation of exogenous EA to any unbound ED cAMP. Active enzymes can then convert a chemiluminescent substrate, generating an output signal detectable on a standard microplate reader.
(§3) cAMP Hunter cell lines were expanded from freezer stocks according to standard procedures. Cells were seeded in a total volume of 20 μL into white walled, 384-well microplates and incubated at 37° C. for the appropriate time prior to testing. cAMP modulation was determined using the DiscoverX Hit Hunter cAMP XS+ assay. For Gi agonist activity determination, cells were incubated with sample in the presence of EC80 forskolin to induce response (20 μM and 25 μM in the CB1 and CB2 assays, respectively). Media was aspirated from cells and replaced with 15 μL 2:1 HBSS/10 mM HEPES:cAMP XS+Ab reagent.
(§4) Intermediate dilution of sample stocks was performed to generate 4× sample in assay buffer. 5 μL of 4× compound was added to cells and incubated at 37° C. or room temperature for 30 or 60 minutes. Final vehicle concentration was 1%. Assay signal was generated through incubation with 20 μL cAMP XS+ED/CL lysis cocktail for one hour at room temperature. Microplates were read following signal generation with a PerkinElmer Envision™ instrument for chemiluminescent signal detection. Compound activity was analyzed using CBIS data analysis suite (Chem Innovation, CA). For agonist assays, percentage activity was calculated using the following formula: % Activity=100%×(1−(mean RLU of test sample−mean RLU of Max control ligand)/(mean RLU of vehicle control−mean RLU of Max control ligand). Control ligand was the non-selective CB1/CB2 agonist CP55,940.

CB1 receptor [2] = biological target: T1, CB1 receptor; assay: cell-based; set-up: host or cells: PathHunter cell lines
Procedure: (§5) The PathHunter® β-Arrestin assay monitors the activation of a GPCR in a homogenous, non-imaging assay format using a technology developed by DiscoverX called Enzyme Fragment Complementation (EFC) with β-galactosidase (3-Gal) as the functional reporter. […] EA is fused to β-Arrestin and PK is fused to the GPCR of interest.
(§6) PathHunter cell lines were expanded from freezer stocks according to standard procedures. Cells were seeded in a total volume of 20 μL into white walled, 384-well microplates and incubated at 37° C. for the appropriate time prior to testing. For agonist activity determination, cells were incubated with sample to induce response. Intermediate dilution of sample stocks was performed to generate 5× sample in assay buffer. 5 μL of 5× sample was added to cells and incubated at 37° C. or room temperature for 90 to 180 minutes. Vehicle concentration was 1%. Assay signal was generated through a single addition of 12.5 or 15 μL (50% v/v) of PathHunter Detection reagent cocktail, followed by a one hour incubation at room temperature. Microplates were read following signal generation with a PerkinElmer Envision™ instrument for chemiluminescent signal detection. Compound activity was analyzed using CBIS data analysis suite (ChemInnovation, CA). For agonist assays, percentage activity was calculated using the following formula: % Activity=100%×(mean RLU of test sample− mean RLU of vehicle control)/(mean MAX control ligand− mean RLU of vehicle control).

CB2 receptor [3] = biological target: T2, CB2 receptor (Homo sapiens, UniProt P34972); assay: cAMP Assay #2: Hit Hunter cAMP assay, Gi-coupled agonist activity, CB2; type: cell-based; set-up: host or cells: cAMP Hunter cell lines; conditions: for CB2 fold selectivity: Hit Hunter cAMP, CB1 EC50 / CB2 EC50
T2 sequence (P34972 whole entry): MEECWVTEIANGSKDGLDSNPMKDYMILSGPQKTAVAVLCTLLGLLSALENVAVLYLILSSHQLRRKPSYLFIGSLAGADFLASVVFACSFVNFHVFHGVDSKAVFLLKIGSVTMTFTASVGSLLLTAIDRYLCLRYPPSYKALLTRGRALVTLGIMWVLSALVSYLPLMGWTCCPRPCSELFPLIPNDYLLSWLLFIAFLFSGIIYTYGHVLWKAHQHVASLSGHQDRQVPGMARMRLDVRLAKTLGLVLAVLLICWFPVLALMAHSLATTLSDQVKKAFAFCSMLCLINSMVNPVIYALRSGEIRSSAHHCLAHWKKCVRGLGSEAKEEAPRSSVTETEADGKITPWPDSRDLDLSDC
Procedure: as §1, §2, §3, §4

CB2 receptor [4] = biological target: T2, CB2 receptor; assay: cell-based; set-up: host or cells: cAMP Hunter cell lines
Procedure: as §5, §6

CB1 receptor [5] = biological target: T1, CB1 receptor; assay: CB1 competitive radioligand binding assay ([3H] SR141716A); set-up: expressed in transfected cells; host or cells: Chem-1 cells
How it was run: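 Chem-1 cells expressing human recombinant CB1 incubated 90 min at 37° C with 2.0 nM [3H]SR141716A and compound at 0.5 μM (1% DMSO) in HEPES pH 7.4 buffer with MgCl2, CaCl2, 0.2% BSA. Read-out is % inhibition of radioligand binding.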

CB2 receptor [6] = biological target: T2, CB2 receptor; assay: CB2 competitive radioligand binding assay ([3H] WIN-55,212-2); set-up: expressed in transfected cells; host or cells: CHO-K1 cells; conditions: for Fold Selectivity (CB1/CB2): Table 3, ratio of Ki CB1/CB2
How it was run: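 Single-concentration displacement: 2.4 nM [3H]WIN-55,212-2 competed with 0.05 μM compound (1% DMSO) for 90 min at 37 °C on human CB2 expressed in CHO-K1 cells (HEPES 20 mM, pH 7.0, 0.5% BSA). Result given as % inhibition of bound radioligand.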

[7] = PathHunter agonist mode, read-out: CB2 Activity (β-Arrestin)
[8] = PathHunter agonist mode, read-out: CB1 Activity (β-Arrestin)

Row | Compound | IL17A (LPS-induced PBMCs) [fold change] | IL-1β (LPS-induced PBMCs) [fold change] | IL-4 (LPS-induced PBMCs) [fold change] | IL-6 (LPS-induced PBMCs) [fold change] | IL-8 (LPS-induced PBMCs) [fold change] | IL-10 (LPS-induced PBMCs) [fold change] | MCP-1 (LPS-induced PBMCs) [fold change] | TNFα (LPS-induced PBMCs) [fold change] | EC50 (CB1 receptor [1]) [nM] | EC50 (CB1 receptor [2]) [nM] | EC50 (CB2 receptor [3]) [nM] | CB2 fold selectivity (CB2 receptor [3]) | EC50 (CB2 receptor [4]; [7]) [nM] | Ki (CB1 receptor [5]) [nM] | Ki (CB2 receptor [6]) [nM] | Fold Selectivity (CB1/CB2) (CB2 receptor [6]) | IL-12 (p70) (LPS-induced PBMCs) [fold change] | L-31 (LPS-induced PBMCs) [fold change] | EC50 (CB1 receptor [2]; [8]) [nM] | EC50 (CB2 receptor [4]) [nM]
1 | CCCCCCC(C)(C)c1cc(O)c2c(c1)OC(C)(C)[C@@H]1CC=C(C(=O)NC3CC(F)(F)C3)C[C@@H]21 [Compound 89, (6aR,10aR)-N-(3,3-difluorocyclobutyl)-1-hydroxy-6,6-dimethyl-3-(2-methyloctan-2-yl)-6a,7,10,10a-tetrahydro-6H-benzo[c]chromene-9-carboxamide] | −14.0 | −4.8 | −3.8 | −237.0 | −4.2 | −960.1 | −143.8 | −35.6 | 43.6 | 33 | 1.3 | 34.6 | 1.9 | 62 | 4.3 | 14.4 |  |  |  | 
2 | CCCCCCC(C)(C)c1cc(O)c2c(c1)OC(C)(C)[C@@H]1CC=C(C(=O)NC3(C(F)(F)F)CC3)C[C@@H]21 [Compound 99, (6aR,10aR)-1-hydroxy-N-(1-trifluoromethyl-cyclopropyl)-6,6-dimethyl-3-(2-methyloctan-2-yl)-6a,7,10,10a-tetrahydro-6H-benzo[c]chromene-9-carboxamide] | 1.2 | 1.2 | −1.4 | −2.6 | −1.0 | −7.0 | −3.3 | −1.4 | 19.1 | 32.5 | 1.3 | 14.9 | 1.2 | 8.9 | 2 | 4.5 | −1.6 | −1.1 |  | 
3 | CCCCC(C)(C)c1cc(O)c2c(c1)OC(C)(C)[C@@H]1CC=C(C(=O)O)C[C@@H]21 [Compound 109] | 1.2 | −3.3 | −1.5 | −1.4 | −1.0 | −1.3 | −5.0 | −1.3 | 1220 |  | 148 | 8.3 | 58.1 | > 3000 | > 3000 |  | −1.6 | −1.5 | > 3000 | 
4 | CCCC(C)(C)c1cc(O)c2c(c1)OC(C)(C)[C@@H]1CC=C(C(=O)O)C[C@@H]21 [Compound 110, (6aR,10aR)-1-hydroxy-6,6-dimethyl-3-(2-methylpentan-2-yl)-6a,7,10,10a-tetrahydro-6H-benzo[c]chromene-9-carboxylic acid] | 1.3 | −1.5 | −1.3 | −1.2 | −1.0 | −1.0 | −3.0 | −1.0 | > 3000 |  | 211 | >14 |  | > 3000 | > 3000 |  | −1.1 | −1.3 | > 3000 | 37.4
